Experiment [1] concerns MCT (cutaneous and subcutaneous). Put plainly: Example 5: Compound 1 injection with oral prednisolone and antihistamine co-therapy, RECIST v.1.1 tumor response. Format: in vivo, Canis lupus familiaris (dog). From the text: This study investigates the efficacy and safety of Compound 1 injection for MCT treatment in the presence of corticosteroids administered under defined clinical situations.
Dogs were selected for the study if they met the criteria in Table 1 (Example 1) but where the dog has at least one MCT.
Wherever possible, the tumor and a 2 cm border surrounding the tumor was shaved prior to treatment. To deliver the drug, the needle of the dosing syringe was inserted into the tumor at the injection point and moved in a radial manner in 2- and 3-dimensions with drug delivered to the tumor mass. Study dogs were clinically examined at 2-4 and 24 hours, and 7 (+2), 14 (+2) and 28 (+2) days post-treatment (and unscheduled visits at attending veterinarian discretion).
Each supervising veterinarian was given latitude to provide and record prophylactic and supportive medications as deemed appropriate for managing potential paraneoplastic events and tumor site necrosis following Compound 1 treatment. However, prednisolone and antihistamines were used as co-therapy. Prednisolone therapy commenced on Day −1 and continued for a further 7 days. H1 and H2 antihistamine therapy (chlorpheniramine and famotidine respectively) commenced on the morning of drug treatment and continued for a further 6 days (see Table 23).
RECIST v.1.1 results are summarised in Table 28 which also includes a measure of neoadjuvant prednisolone action (potential tumor shrinkage) between screening and immediate pre-treatment tumor evaluation. Sixteen (16) dogs and eighteen (18) tumors were treated. Raw data for RECIST assessment was collected on Day 0 (immediately pre-treatment) and on Day 28 for fifteen (15) cases. […] With the remaining three (3) cases (C05-T-18, C05-V-01, and C05-V-02), the dogs were not available on Day 28 for RECIST assessment. For dog C05-T-18, the injection site was measured as CR on Days 21 and 37. […] For dog C05-V-01, the injection site was measured as PR on Days 21 and 37 (55% and 60% RECIST reduction respectively). […] For dog […], due to the progressive nature of disease, the animal was removed from study on Day 21.

Experiment [2] deals with soft tissue sarcoma (STS). Put plainly: Example 6: treatment of soft tissue sarcoma with intratumoral Compound 1, tumor response. To be noted: per dog, Compound 1 1.0 mg/mL intratumoral, first treatment. Format: in vivo, dogs. From the text:
Dogs were selected for the study if they met the criteria in Table 1 (Example 1) but where the dog has at least one STS. Study dogs were managed with due regard for their welfare. All animals were client-owned, treated by Australian registered veterinarians, and cases managed under their direct supervision. An enrolled dog could be removed from the study prior to study completion under the following circumstances: • 1. If at any time during the study, in the opinion of the attending veterinarian, the dog's welfare is at risk due to non-response of the tumor to Compound 1 treatment or due to a serious adverse event, the veterinarian could elect to withdraw the dog from the study. Following withdrawal, the dog's attending veterinarian could then administer supportive treatment and veterinary care that they deem is appropriate and in the best interest of the animal. • 2. […]
• 1. […] The total calculated volume of the selected STS was confirmed as ≤12.5 cm3 (determined as ½×length (cm)×width (cm)×depth (cm)). • 5. The calculated dose of drug for the dog was confirmed as ≤0.25 mg Compound 1 per kg at the Day 0 visit (maximum dose of 5 mg Compound 1). • 6. The drug was provided to veterinarians as a 1 mg/mL Compound 1 formulation in ready to use form. • 7. […] Treated tumors were observed regularly and observations recorded at days 1, 7 (+2), 14 (+2) and 28 (+2) days post-treatment. • 10. […]

For the compound `C/C=C(\C)C(=O)O[C@@H]1[C@@H](C)[C@@]2(O)[C@H]([C@@H]3C(C)(C)[C@]13OC(=O)[C@@H](C)CC)[C@@H]1O[C@]1(CO)[C@@H](O)[C@]1(O)C(=O)C(C)=C[C@H]12` [Compound 1, 12-tigloyl-13-(2-methylbutanoyl)-6,7-epoxy-4,5,9,12,13,20-hexahydroxy-1-tigliaen-3-one], in experiment [1] (14 out of 18 cases), the “Share of cases with a CR RECIST result” value worked out at 78%. The “Number of cases with progressive disease (PD)” value in experiment [1] (Day 28, 15 cases assessed) came to 1. In addition, the “Number of cases with complete response (CR)” value in experiment [1] (Day 28, 15 cases assessed, prednisolone, chlorpheniramine, famotidine co-therapy) was 13. Moreover, in experiment [1] (dog C05-T-09, Patnaik Grade III cutaneous MCT), the “Tumor course beyond Day 7 post treatment” value is “continued to grow”. In experiment [1] (dog C05-V-01, Day 21), this compound returned an RECIST reduction of 55%. Moreover, in experiment [1] (dog C05-V-01, Day 37), the RECIST reduction is reported as 60%. Moreover, in experiment [1] (dog C05-V-01, Day 57), the “RECIST reduction of residual mass” value was found to be 70%. For the same compound, in experiment [1] (dog C05-V-01, Days 21 and 37), the “RECIST result of injection site” value is “PR (partial response (PR, at least 30% decrease in the longest diameter of target lesion))”. Also, the “Residual tumor after initial tumor reduction” value in experiment [1] (dog C05-V-02, vulvar Patnaik Grade III MCT) is “residual tumor mass was evident by Day 21”. In experiment [1] (of 18 cases enrolled), the “Number of cases with partial response (PR)” value is given as 1 and the “Number of cases with progressive disease” value worked out at 2. Further, the “Number of cases with a CR RECIST result” value in experiment [1] (out of eighteen (18) treated cases) was found to be 14. Moreover, the RECIST classification result in experiment [2] is recorded as “PR (partial response (PR, at least 30% decrease in the longest diameter of target lesion))”.

The values are drawn from patent US20190160035A1, “METHOD OF TREATMENT” (QBIOTICS LIMITED, priority 2016, published 2019).
